Test results reported in PMC7443224, “An UPLC-MS/MS Method for Simultaneous Quantification of the Components of Shenyanyihao Oral Solution in Rat Plasma” (BioMed Research International, 2020).
Several values for one entry are separate records, joined by “and”; a condition that tells them apart may be missing. Identical values can stand only once.

Assay: Pharmacokinetic study in rat plasma after oral administration of Shenyanyihao oral solution (UPLC-MS/MS, noncompartmental)
Assay type: in vivo, Sprague-Dawley rats
Conditions: for Cmax / Tmax / half-life / MRT: male, Sprague-Dawley; for Cmax: plasma; for MRT: read-out: MRT0‐∞
Description: Male Sprague-Dawley rats (180–220 g) were purchased from Shanghai SLAC Laboratory Animal Co., Ltd. (Shanghai, China) and housed in an environmentally controlled room with a natural light-dark cycle for 7 days before the experiment was carried out. The male Sprague-Dawley rats were randomly given a dose of 10 g/kg/day of Shenyanyihao oral solution by oral administration for pharmacokinetic experiments. All animal experiments were carried out according to the Guidelines for the Care and Use of Laboratory Animals and were approved by the Animal Ethics Committee of the Second Military Medical University.
The protein precipitation with methanol was applied for sample preparation. 50 μl of plasma spiked with 50 μl of mixed IS solution were thoroughly mixed with 100 μl methanol by vortexing for 30 s. The mixture was centrifuged at 12,000 rpm for 5 min. An aliquot of 100 μl from the supernatant was transferred and subsequently evaporated to dryness by vacuum concentration. Five μl of the supernatant was transferred for the UPLC-MS/MS analysis.
The analytes in plasma were measured by a simple and sensitive UPLC-MS/MS method. Chromatographic analysis was performed on an Agilent 1290 Infinity UPLC system consisting of a binary pump, a surveyor autosampling system, and a thermostatted column compartment. An Agilent Poroshell 120 EC-C18 column (3.0 mm × 100 mm, 2.7 μm) was used for chromatographic separation. The mobile phases of A (acetonitrile) and B (0.1% formic acid aqueous solution) were eluted at a flow rate of 0.4 ml/min with the following gradient conditions: 0-5 min, 50% A; 5-6 min, 50%-90% A; and 6-10 min, 90% A. The column temperature was maintained at 25°C, the autosampler was conditioned at 4°C, and the injection volume was 5 μl. The analysis time was 10 min per sample. An Agilent 6470 tandem mass spectrometer (Agilent Technologies, USA) equipped with an Agilent Jet Stream Technology (AJS) electrospray source interface (ESI) was used for MS detection. The mass spectrometric detection was optimized simultaneously in the positive and negative ion modes by multiple reaction monitoring (MRM). The main MS parameters of the ionized chamber are as follows: capillary voltage at 4000 V (positive)/3500 V (negative), gas temperature at 350°C, drying gas flow at 11 l/min, nebulizer pressure at 40 psi, sheath gas temperature at 400°C, and sheath gas flow at 11 l/min. Data acquisition and analysis were performed using the Agilent MassHunter WorkStation version B.07.00.
The rats were administered orally with Shenyanyihao oral solution. Blood samples from the ophthalmic venous plexus taken at 0.08, 0.17, 0.25, 0.33, 0.5, 1, 1.5, 2, 4, 6, 8, 12, 24, and 48 h after oral administration and at 0 h (predose) were collected (0.2 ml) into heparinized centrifuge tubes. The blood samples were immediately centrifuged at 4000 rpm at 4°C for 5 min, and the supernatant plasma was transferred into another tube and stored at -80°C until treatment.
Pharmacokinetic parameters were analyzed by a noncompartmental method using the WinNonlin7.0 pharmacokinetic program (Pharsight Corp., USA). The maximum concentration (Cmax) and time to reach the maximum concentration (Tmax ) were measured from values obtained from the concentration-time curve. All results were expressed as mean ± standard deviation (SD).

[1] = rat, po, 10 g/kg/day, rat plasma, oral administration of Shenyanyihao oral solution 10 g/kg/day, n = 6, mean ± SD
[2] = rat plasma, oral administration of Shenyanyihao oral solution 10 g/kg/day, n = 6, mean ± SD

Structure (SMILES) | Cmax [1] | Tmax [2] | half-life [2] | MRT [2] | AUC0‐t [2] | AUC0‐∞ [2] | AUMC0‐∞ [2] | CL [2] | V d [2] | C max [2] | MRT0‐∞ [2] | t 1/2 [2] | AUC0‐t (rat, in vivo, po, 10 g/kg/day) | AUC0‐∞ (rat, in vivo, po, 10 g/kg/day) | MRT0‐∞ (rat, in vivo, po, 10 g/kg/day) | V d (rat, in vivo, po, 10 g/kg/day) | T max [2] | C max (rat plasma, oral administration of Shenyanyihao oral solution 10 g/kg/day, n = 6, mean ± SD, listed as stachydine)
O=c1cc(-c2ccccc2)oc2cc(O)c(O)c(O)c12 [Baicalein, baicalein] | 14.2 ± 2.59 ng/mL | 3.6 ± 0.89 h | 11.7 ± 4.78 h | 15.2 ± 5.91 h | 106.77 ± 46.19 ng/ml∗h | 128.95 ± 53.59 ng/ml∗h | 2190.95 ± 1741.10 ng/ml∗h^2 | 145 ± 50.5 mL/min/kg | 131.54 ± 23.79 L/kg | – | – | – | – | – | – | – | – | –
O=C(O)[C@H]1O[C@@H](Oc2cc3oc(-c4ccccc4)cc(=O)c3c(O)c2O)[C@H](O)[C@@H](O)[C@@H]1O [Baicalin, baicalin] | > 2500 ng/mL | 2.8 ± 1.1 h | 5.01 ± 0.52 h | 8.71 ± 2 h | 26525.1 ± 15523.7 ng/ml∗h | 26566.8 ± 15520.4 ng/ml∗h | 229094.2 ± 146621.6 ng/ml∗h^2 | 28.5 ± 15 mL/min/kg | 12.89 ± 8.01 L/kg | 2983.4 ± 1344.3 ng/mL | – | – | – | – | – | – | – | –
O=C(/C=C/c1ccc(O)c(O)c1)O[C@@H]1C[C@](O)(C(=O)O)C[C@@H](O)[C@H]1O [Chlorogenic acid, chlorogenic acid] | 3.53 ± 0.52 ng/mL | – | 16.7 ± 3.32 h | 15.4 ± 3.31 h | 17.05 ± 2.86 ng/ml∗h | 21.95 ± 3.34 ng/ml∗h | 338.84 ± 99.46 ng/ml∗h^2 | 697.2 ± 113 mL/min/kg | 1001.03 ± 202.53 L/kg | – | – | – | – | – | – | – | – | –
O=C(O)[C@H](O)Cc1ccc(O)c(O)c1 [Danshensu] | – | – | – | – | 556.04 ng/ml∗h and 556.04 ± 165.66 ng/ml∗h | 569.72 ng/ml∗h and 569.72 ± 165.31 ng/ml∗h | 2049.56 ± 1061.35 ng/ml∗h^2 | 41.2 ± 14.3 mL/min/kg | 13.67 ± 8.51 L/kg | 181.79 ± 59.58 ng/mL | 3.56 ± 1.71 h | 3.91 ± 2.34 h | – | – | – | – | – | –
COc1cc(/C=C/C(=O)O)ccc1O [Ferulic acid, ferulic acid] | – | – | – | – | – | – | – | – | – | – | – | – | 76.39 ± 21.43 ng/ml∗h | 95.70 ± 25.36 ng/ml∗h | 12.50 ± 4.16 h | 18.01 ± 5.2 L/kg | – | –
O=c1c(O[C@@H]2O[C@H](CO)[C@@H](O)[C@H](O)[C@H]2O)c(-c2ccc(O)c(O)c2)oc2cc(O)cc(O)c12 [Isoquercitrin, isoquercitrin] | 1.65 ± 0.23 ng/mL | 0.5 h | 26.4 ± 3.89 h | 33.7 ± 3.63 h | 4.75 ± 0.68 ng/ml∗h | 8.98 ± 1.33 ng/ml∗h | 304.35 ± 69.29 ng/ml∗h^2 | 56.7 ± 8.33 mL/min/kg | 127.91 ± 13.82 L/kg | – | – | – | – | – | – | – | – | –
O=C(/C=C/c1ccc(O)c(O)c1)O[C@H]1[C@H](O[C@@H]2O[C@H](CO)[C@@H](O)[C@H](O)[C@H]2O)[C@@H](O)[C@H](OCCc2ccc(O)c(O)c2)O[C@@H]1CO [Plantamajoside, plantamajoside] | – | – | – | – | 3.99 ± 0.44 ng/ml∗h | 5.01 ± 0.71 ng/ml∗h | 66.31 ± 28.63 ng/ml∗h^2 | 78 ± 12.8 mL/min/kg | 79.97 ± 18.00 L/kg | 1.31 ± 0.23 ng/mL | 12.76 ± 4.47 h | 12.33 ± 3.92 h | – | – | – | – | 1.40 ± 0.22 h | –
O=C(O)c1ccc(O)c(O)c1 [Protocatechuic acid, protocatechuic acid] | 26.2 ± 11.6 ng/mL | 0.5 h | 11.3 ± 2.23 h | 6.6 ± 2.26 h | 41.96 ± 11.42 ng/ml∗h | 45.80 ± 12.60 ng/ml∗h | 307.02 ± 152.54 ng/ml∗h^2 | 25.3 ± 7.83 mL/min/kg | 24.09 ± 4.86 L/kg | – | – | – | – | – | – | – | – | –
C[N+]1(C)CCC[C@H]1C(=O)[O-] [Stachydrine, stachydrine] | – | – | – | – | 39256.8 ± 4031.7 ng/ml∗h | 40196.0 ± 4088.2 ng/ml∗h | 515393.7 ± 55002.7 ng/ml∗h^2 | 1 ± 0.17 mL/min/kg | 0.76 ± 0.11 L/kg | 2673.0 ± 163.0 ng/mL | 12.82 ± 0.25 h | 9.09 ± 0.51 h | – | – | – | – | 3.20 ± 1.10 h | > 2500 ng/mL
